Columns and labels:
[1] = test system: LNCaP-Vancouver prostate cells; assay: In vitro LNCaP Vancouver prostate cell proliferation assay in lipid reduced medium; type: cell-based; settings: read-out: pIC50 LNCaP_Vancouver prostate cell (converted)
[2] = test system: A2780 ovarian cells; assay: A2780 ovarian cell proliferation assay in lipid reduced medium, with palmitate (MTT); type: cell-based; settings: Homo sapiens, A2780, 96 h; read-out: pIC50 A2780 Ovarian Cell, With Palmitate (converted)
Procedure, shortened: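 In this palmitate-supplemented format, compound dilutions (30 μM down to 0.01 μM) are added to cells in lipid-reduced serum with 25 μM palmitate, 0.2% fatty-acid-free BSA and 0.25% ethanol. After four days (96 h) MTT absorbance at 544 nm is recorded and fitted by minimum sum of squares.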

[3] = test system: PC-3M-Luc-C6 prostate cells; assay: In vitro PC-3M-Luc-C6 prostate cell proliferation assay in lipid reduced medium; type: cell-based; settings: 96 h, read-out: pIC50 PC-3M-Luc-C6 prostate cell (converted)
[4] = test system: A2780 ovarian cells; assay: A2780 ovarian cell proliferation assay in lipid reduced medium, without palmitate (MTT); type: cell-based; settings: Homo sapiens, A2780, 96 h; read-out: pIC50 A2780 Ovarian Cell, Without Palmitate (converted)
[5] = target: Fatty Acid Synthase Keto-reductase Domain (FASN KR) (Homo sapiens, UniProt P49327); assay: Fatty Acid Synthase keto-reductase domain (FASN KR) inhibition, NADPH oxidation at 340 nm
Chain of Fatty Acid Synthase Keto-reductase Domain (FASN KR) (P49327 whole entry, the tested form may be a part): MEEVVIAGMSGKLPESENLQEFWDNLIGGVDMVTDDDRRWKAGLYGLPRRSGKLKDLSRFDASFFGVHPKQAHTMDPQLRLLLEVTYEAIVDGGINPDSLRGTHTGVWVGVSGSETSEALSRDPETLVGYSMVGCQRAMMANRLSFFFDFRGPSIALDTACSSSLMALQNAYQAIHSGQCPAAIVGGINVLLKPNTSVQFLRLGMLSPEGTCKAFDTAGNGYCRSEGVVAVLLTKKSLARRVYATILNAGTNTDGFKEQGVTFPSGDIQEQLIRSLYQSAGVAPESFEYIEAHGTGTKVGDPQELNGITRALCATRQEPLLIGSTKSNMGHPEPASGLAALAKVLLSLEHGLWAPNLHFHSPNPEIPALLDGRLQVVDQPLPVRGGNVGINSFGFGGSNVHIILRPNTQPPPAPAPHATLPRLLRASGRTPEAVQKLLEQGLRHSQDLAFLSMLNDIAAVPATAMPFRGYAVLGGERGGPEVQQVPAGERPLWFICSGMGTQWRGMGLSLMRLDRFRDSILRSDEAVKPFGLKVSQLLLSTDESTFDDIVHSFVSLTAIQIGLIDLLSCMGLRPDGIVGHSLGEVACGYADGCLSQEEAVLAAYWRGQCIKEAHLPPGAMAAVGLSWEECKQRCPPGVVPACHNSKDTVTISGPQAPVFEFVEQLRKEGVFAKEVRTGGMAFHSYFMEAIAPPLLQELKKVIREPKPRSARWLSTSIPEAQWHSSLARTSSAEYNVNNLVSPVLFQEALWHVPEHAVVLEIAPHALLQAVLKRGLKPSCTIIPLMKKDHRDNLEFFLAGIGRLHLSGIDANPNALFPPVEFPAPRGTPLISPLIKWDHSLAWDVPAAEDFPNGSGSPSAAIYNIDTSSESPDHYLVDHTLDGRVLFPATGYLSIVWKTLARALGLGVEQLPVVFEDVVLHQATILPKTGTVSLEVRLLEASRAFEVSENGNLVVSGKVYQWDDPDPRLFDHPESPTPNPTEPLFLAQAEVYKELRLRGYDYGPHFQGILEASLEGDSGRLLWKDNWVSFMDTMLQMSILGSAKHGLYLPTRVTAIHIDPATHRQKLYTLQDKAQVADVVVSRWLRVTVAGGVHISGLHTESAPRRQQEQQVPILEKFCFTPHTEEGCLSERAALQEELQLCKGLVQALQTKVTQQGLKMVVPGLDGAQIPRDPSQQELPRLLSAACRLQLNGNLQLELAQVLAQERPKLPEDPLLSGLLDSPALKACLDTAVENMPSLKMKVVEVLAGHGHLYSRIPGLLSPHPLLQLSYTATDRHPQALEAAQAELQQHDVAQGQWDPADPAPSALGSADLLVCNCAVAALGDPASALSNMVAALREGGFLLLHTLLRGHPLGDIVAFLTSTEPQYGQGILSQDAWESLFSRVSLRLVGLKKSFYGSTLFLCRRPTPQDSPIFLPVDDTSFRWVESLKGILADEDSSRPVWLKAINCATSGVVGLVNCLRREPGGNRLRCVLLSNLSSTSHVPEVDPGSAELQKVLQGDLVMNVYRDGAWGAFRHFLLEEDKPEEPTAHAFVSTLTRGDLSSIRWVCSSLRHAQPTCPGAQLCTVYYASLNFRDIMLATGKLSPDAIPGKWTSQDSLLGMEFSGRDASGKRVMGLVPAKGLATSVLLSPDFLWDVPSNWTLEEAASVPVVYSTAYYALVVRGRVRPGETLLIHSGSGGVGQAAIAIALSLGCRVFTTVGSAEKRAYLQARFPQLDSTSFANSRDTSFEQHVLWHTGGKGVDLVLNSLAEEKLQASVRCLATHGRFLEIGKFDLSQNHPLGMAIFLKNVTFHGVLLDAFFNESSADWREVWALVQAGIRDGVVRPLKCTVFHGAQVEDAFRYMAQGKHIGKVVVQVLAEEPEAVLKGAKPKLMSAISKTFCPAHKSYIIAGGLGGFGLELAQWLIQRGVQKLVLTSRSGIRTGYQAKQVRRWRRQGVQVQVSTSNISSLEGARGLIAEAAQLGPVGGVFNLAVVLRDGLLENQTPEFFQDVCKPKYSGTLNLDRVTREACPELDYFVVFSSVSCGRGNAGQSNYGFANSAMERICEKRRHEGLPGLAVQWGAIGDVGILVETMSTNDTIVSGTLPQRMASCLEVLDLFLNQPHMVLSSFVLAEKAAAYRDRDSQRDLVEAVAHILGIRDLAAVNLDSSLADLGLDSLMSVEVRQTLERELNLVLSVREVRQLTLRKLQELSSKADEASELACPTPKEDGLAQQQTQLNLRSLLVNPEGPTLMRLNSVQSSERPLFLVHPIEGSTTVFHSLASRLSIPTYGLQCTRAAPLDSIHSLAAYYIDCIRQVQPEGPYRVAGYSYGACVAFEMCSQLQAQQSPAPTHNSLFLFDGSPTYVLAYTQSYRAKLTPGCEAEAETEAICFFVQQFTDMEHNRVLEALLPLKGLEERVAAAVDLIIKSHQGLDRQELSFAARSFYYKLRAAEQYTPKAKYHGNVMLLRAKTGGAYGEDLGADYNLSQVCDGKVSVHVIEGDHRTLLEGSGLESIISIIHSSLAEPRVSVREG
Procedure: After 20 minutes incubation at room temperature the plate was measured again (T2).
The decrease in absorbance was calculated as (Absorbance before incubation T1)−(Absorbance following incubation T2).
A plot of Controlmin versus test compound concentration was fitted to a 4-parameter logistic curve using a non-linear least squares regression method.

[6] = target: T1, hFASN enzyme (full length) (Homo sapiens, UniProt P49327); assay: Fatty Acid Synthase (FASN) inhibition scintillation proximity assay; type: biochemical; settings: for inhibition at 10 µM: read-out: Human FASN % inhibition @ 10 μM, 10 μM test compound; for IC50: read-out: Human FASN pIC50 (converted)
T1 construct: 10 μL hFASN enzyme (full length, 300 ng, purified in house); made in house
T1 sequence (P49327 whole entry): as the sequence (P49327 whole entry, the tested form may be a part) above
Procedure, shortened: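 Read-out relies on hydrophobic ³H-palmitate product, formed from ³H-acetyl-CoA and malonyl-CoA, binding streptavidin imaging beads, measured at 610±20 nm after at least 24 h. Full-length enzyme (300 ng) in phosphate buffer pH 7.5 with DTT; eight compound concentrations, 0.01–30 μM.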

Structure (SMILES) | IC50 [1] [nM] | IC50 [2] [nM] | IC50 [3] [nM] | IC50 [4] [nM] | IC50 [5] [nM] | inhibition at 10 µM [6] [%] | IC50 [6] [nM]
Cc1cc(C2=NC3(CC3)C(=O)N2C[C@@H]2CCN(C(=O)C3CC3)C2)ccc1-c1ccc2sc(C)c(C)c2c1 [compound 231, (R)-6-((1-(cyclopropanecarbonyl)pyrrolidin-3-yl)methyl)-5-(4-(2,3-dimethylbenzo[b]thiophen-5-yl)-3-methylphenyl)-4,6-diazaspiro[2.4]hept-4-em-7-one] | 2190 | > 6170 | ~1620 | 2510 | 282 | 108 | 100
O=C(C1CC1)N1CC[C@@H](CN2C(=O)C3(CC3)N=C2c2ccc(-c3ccc4cc[nH]c4c3)c(F)c2)C1 [compound 236, (R)-6-((1-(cyclopropanecarbonyl)pyrrolidin-3-yl)methyl)-5-(3-fluoro-4-(1H-indol-6-yl)phenyl)-4,6-diazaspiro[2.4]hept-4-en-7-one] | 646 | > 10000 | 51.3 | ~89.1 | 95.5 | 98 | 34.7
Nc1cc(-c2ccc(C3=NC4(CC4)C(=O)N3C[C@@H]3CCN(C(=O)C4CC4)C3)cc2)ccn1 [compound 452, 5-[4-(2-Aminppyridin-4-yl)phenyl]-6-{[(3R)-1-(cyclopropylcarbonyl)pyrrolidin-3-yl]methyl}-4,6-diazaspiro[2.4]hept-4-en-7-one] | 2040 | > 10000 | 550 | 631 | 525 | 97 | 229
Cc1cc(-c2ccc3ccc(C#N)nc3c2)ccc1C1=NC2(CC2)C(=O)N1CC1CN(C(=O)C2(C)CC2)C1 [compound 604, 7-{3-Methyl-4-[6-({1-[(1-methylcyclopropyl)carbonyl]azetidin-3-yl}methyl)-7-oxo-4,6-diazaspiro[2.4]hept-4-en-5-yl]phenyl}quinoine-2-carbonitrile] | > 10000 | ~10000 | 4170 | 2340 | 8710 | 84 | 1120
N#Cc1ccc2cc(-c3ccc(C4=NC5(CC5)C(=O)N4CC4CN(C(=O)C5CCO5)C4)c(F)c3)ccc2c1 (centres unmarked) [compound 226, 6-(3-fluoro-4-(6-((1-(oxetane-2-carbonyl)azetidin-3-yl)methyl)-7-oxo-4,6-diazaspiro[2..4]hept-4-en-5-yl)phenyl)-2-naphthonitrile] | 21.9 | > 10000 | ~5.89 | 2.34 | 24 | 98 | 23.4
O=C(N1CCCC1)N1CC(CN2C(=O)C3(CCOC3)N=C2c2ccc(-c3ccc4cccnc4c3)cc2)C1 (centres unmarked) [compound 717, 3-{[1-(Pyrrolidin-1-ylcarbonyl)azetidin-3-yl]methyl}-2-(4-quinolin-7-ylphenyl)-7-oxa-1,3-diazaspiro[4.4]non-1-en-4-one] | 5010 | > 10000 | 1700 | 1620 | 2000 | 87 | 676
Cn1ncc2cc(-c3ccc(C4=NC5(CC5)C(=O)N4CC4CN(C(=O)C5(C)CC5)C4)c(F)c3)ccc21 [compound 357, 5-(2-fluoro-4-(1-methyl-1H-indaozl-5-yl)phenyl)-6-((1-(1-methylcyclopropanecarbonyl)azetidin-3-yl)methyl)-4,6-diazaspiro[2.4]hept-4-en-7-one] | 372 | > 10000 | 25.1 | 22.4 | 63.1 | 97 | 39.8
Nc1cc2cc(-c3ccc(C4=NC5(CC5)C(=O)N4C[C@@H]4CCN(C(=O)C5CC5)C4)cc3)ccc2cn1 [compound 219, (R)-5-(4-(3-aminoisoquinolin-6-yl)phenyl)-6-((1-(cyclopropanecarbonyl)pyrrolidin-3-yl)methyl)-4,6-diazaspiro[2.4]hept-4-en-7-one] | 302 | 1170 | 126 | 67.6 | 263 | 103 | 75.9
Cc1cc(-c2nn(C)c3ccccc23)ccc1C1=NC2(CC2)C(=O)N1CC1CN(C(=O)C2(C)CC2)C1 [compound 600, 6-({1-[(1-Methylcyclopropyl)carbonyl]azetidin-3-yl}methyl)-5-[2-methyl-4-(1-methyl-1H-indazol-3-yl)phenyl]-4,6-diazaspiro[2.4]hept-4-en-7-one] | 2240 | > 10000 | 501 | ~603 | 1200 | 98 | 417
O=C(C1CC1)N1CC(CN2C(=O)C3(CC3)N=C2c2ccc(-c3ccc4occc4c3)cc2)C1 [compound 49, 5-[4-(1-Benzofuran-5-yl)phenyl]-6-{[1-(cyclopropylcarbonyl)azetidin-3-yl]methyl}-4,6-diazaspiro[2.4]hept-4-en-7-one] | 912 | > 10000 | 219 | 331 | 155 | 101 | 60.3
COc1ccc2cc(-c3ccc(C4=NC5(CC5)C(=O)N4CC4CN(C(=O)C5(C)CC5)C4)c(C)c3)ccc2c1 [compound 332, 5-(4-(6-methoxynaphthalen-2-yl)-2-methylphenyl)-6-((1-(1-methylcyclopropanecarbonyl)azetidin-3-yl)methyl)-4,6-diazaspiro[2.4]hept-4-en-7-one] | 107 | 4170 | 12.3 | 12.3 | 60.3 | 100 | 18.6
Cn1nc(Cl)c2ccc(-c3ccc(C4=NC5(CC5)C(=O)N4CC4CN(C(=O)C5CC5)C4)c(F)c3)cc21 [compound 606, 5-[4-(3-Chloro-1-methyl-1H-indazol-6-yl)-2-fluorophenyl]-6-{[1-(cyclopropylcarbonyl)azetidin-3-yl]methyl}-4,6-diazaspiro[2.4]hept-4-en-7-one] | 2400 | > 10000 | 1120 | 1230 | 1450 | 97 | 209
O=C(C1CC1)N1CC[C@@H](CN2C(=O)C3(CC3)N=C2c2ccc(-c3cccc4[nH]ncc34)s2)C1 [compound 427, 6-{[(3R)-1-(Cyclopropylcarbonyl)pyrrolidin-3-yl]methyl}-5-[5-(1H-indazol-4-yl)thiophen-2-yl]-4,6-diazaspiro[2.4]hept-4-en-7-one] | 2630 | > 10000 | 851 | 832 | 1120 | 91 | 417
O=C([C@H]1CCCO1)N1CC[C@@H](CN2C(=O)C3(CCOC3)N=C2c2ccc(-c3ccc4cccnc4c3)cc2)C1 (stereo partly drawn) [compound 682, 2-(4-Quinolin-7-ylphenyl)-3-({(3R)-1-[(2R)-tetrahydro-furan-2-ylcarbonyl]pyrrolidin-3-yl}methyl)-7-oxa-1,3-diazaspiro[4.4]non-1-en-4-one] | 1000 | > 10000 | 219 | 117 | 182 | 96 | 115
O=C(C1CC1)N1CC[C@@H](CN2C(=O)C3(CCCC3)N=C2c2ccc(-c3ccc4[nH]c(=O)[nH]c4c3)cc2F)C1 [compound 885, (R)-5-(4-(3-((1-(cyclopropanecarbonyl)pyrrolidin-3-yl)methuyl)-4-oxo-1,3-diazaspiro[4.4]non-1-en-2-yl)-3-fluorophenyl)-1H-benzo[d]imidazol-2(3H)-one] | > 10000 | > 10000 | ~2630 | ~2240 | 490 | 98 | 309
O=C(C1CC1)N1CC[C@@H](CN2C(=O)C3(CC3)N=C2c2ccc(-c3ccc4cncnc4c3)cc2F)C1 [compound 258, (R)-6-((1-(cyclopropanecarbonyl)pyrrolidin-3-yl)methyl)-5-(2-fluoro-4-(quinazolin-7-yl)phenyl)-4,6-diazaspiro[2.4]hept-4-en-7-one] | 31.6 | > 10000 | 14.5 | ~11.2 | 83.2 | 94 | 72.4
Cn1cc(-c2ccc(-c3ccc(C4=NC5(CC5)C(=O)N4CC4CN(C(=O)C5(O)CC5)C4)c(F)c3)cc2)cn1 [compound 382, 5-(3-fluoro-4′-(1-methyl-1H-pyrazol-4-yl)-[1,1′-biphenyl]-4-yl)-6-((1-(1-hydroxycyclopropanecarbonyl)azetidin-3-yl)methyl)-4,6-diazaspiro[2.4]hept-4-en-7-one] | 55 | > 10000 | 26.9 | ~6.76 | 66.1 | 99 | 25.1
